# Earlier results in patent publication US20170151152A1, “COMBINATION OF N-ACETYL GLUCOSAMINE WITH ABSCISIC ACID AND USES THEREOF” (priority 2015, published 2017).
# System: cell cultures
# Settings: 1%, 3%, 5% of 30 μL of NAG
smiles,measurement,value
"CC(=O)N[C@H]1C(O)O[C@H](CO)[C@@H](O)[C@@H]1O (stereo partly shown) [NAG, N-acetyl glucosamine]",melanin in cell cultures,dose dependent decrease in melanin
